US8741906B2 (priority 2011, dated 2014)
Read-outs that look alike come from different tables or passages of the source.

What was measured:
[1] = target: T1, human CB1 receptors (Homo sapiens, UniProt P21554); experiment: functional cAMP assay, human CB1; assay type: cell-based
T1 construct: expressed in transfected cells; host or cells: CHO cells
Procedure: (§1) CHO cells expressing human CB1 or CB2 receptors are seeded 17-24 hours prior to the experiment 50.000 cells per well in a black 96 well plate with flat clear bottom (Corning Costar #3904) in DMEM (Invitrogen No. 31331), 1×HT supplement, with 10% fetal calf serum and incubated at 5% CO2 and 37° C. in a humidified incubator. The growth medium was exchanged with Krebs Ringer Bicarbonate buffer with 1 mM IBMX and incubated at 30° C. for 30 min. Compounds were added to a final assay volume of 100 μl and incubated for 30 min at 30° C. Using the cAMP-Nano-TRF detection kit the assay (Roche Diagnostics) was stopped by the addition of 50 μl lysis reagent (Tris, NaCl, 1.5% Triton X100, 2.5% NP40, 10% NaN3) and 50 μl detection solutions (20 μM mAb Alexa700-cAMP 1:1, and 48 μM Ruthenium-2-AHA-cAMP) and shaken for 2 h at room temperature. The time-resolved energy transfer is measured by a TRF reader (Evotec Technologies GmbH), equipped with a ND:YAG laser as excitation source. The plate is measured twice with the excitation at 355 nm and at the emission with a delay of 100 ns and a gate of 100 ns, total exposure time 10 s at 730 (bandwidth 30 nm) or 645 nm (bandwidth 75 nm), respectively. The FRET signal is calculated as follows: FRET=T730-Alexa730-P(T645-B645) with P=Ru730-B730/Ru645-B645, where T730 is the test well measured at 730 nM, T645 is the test well measured at 645 nm, B730 and B645 are the buffer controls at 730 nm and 645 nm, respectively. cAMP content is determined from the function of a standard curve spanning from 10 μM to 0.13 nM cAMP.
(§2) EC50 values were determined using Activity Base analysis (ID Business Solution, Limited). The EC50 values for a wide range of cannabinoid agonists generated from this assay were in agreement with the values published in the scientific literature.

[2] = target: T2, human CB2 receptors (Homo sapiens, UniProt P34972); experiment: functional cAMP assay, human CB2; assay type: cell-based; conditions: CHO cells expressing human CB2, cAMP; read-out: human CB2 EC50
T2 construct: expressed in transfected cells; host or cells: CHO cells
Procedure: as §1, §2

[3] = CHO cells expressing human CB1, cAMP, read-out: human CB1 EC50

T1 sequence (P21554 whole entry): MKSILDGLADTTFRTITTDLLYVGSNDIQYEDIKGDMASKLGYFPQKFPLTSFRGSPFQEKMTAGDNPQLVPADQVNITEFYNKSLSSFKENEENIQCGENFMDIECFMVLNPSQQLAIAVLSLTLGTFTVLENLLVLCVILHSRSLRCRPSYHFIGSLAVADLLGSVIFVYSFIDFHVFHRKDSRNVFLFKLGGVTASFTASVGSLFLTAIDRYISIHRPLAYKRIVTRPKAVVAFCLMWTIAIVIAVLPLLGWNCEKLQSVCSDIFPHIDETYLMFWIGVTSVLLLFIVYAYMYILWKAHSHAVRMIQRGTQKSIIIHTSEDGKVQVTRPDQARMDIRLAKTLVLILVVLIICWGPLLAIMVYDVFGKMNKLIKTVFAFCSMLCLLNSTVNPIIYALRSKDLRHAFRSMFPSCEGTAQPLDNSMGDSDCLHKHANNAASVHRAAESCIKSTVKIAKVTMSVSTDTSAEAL
T2 sequence (P34972 whole entry): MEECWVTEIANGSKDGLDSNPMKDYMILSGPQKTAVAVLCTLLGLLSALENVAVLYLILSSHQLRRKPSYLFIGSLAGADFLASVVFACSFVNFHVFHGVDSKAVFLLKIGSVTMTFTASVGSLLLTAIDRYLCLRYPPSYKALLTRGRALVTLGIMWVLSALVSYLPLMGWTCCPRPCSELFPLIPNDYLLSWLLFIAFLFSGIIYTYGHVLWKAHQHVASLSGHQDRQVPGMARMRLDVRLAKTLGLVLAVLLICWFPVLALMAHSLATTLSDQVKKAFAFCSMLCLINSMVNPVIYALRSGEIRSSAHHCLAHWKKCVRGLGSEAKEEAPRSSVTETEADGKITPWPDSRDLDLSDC

Structure (SMILES)	EC50 [1, 3] [nM]	EC50 [2] [nM]	EC50 [1] [nM]
CC(C)(C)c1nc(N2C[C@@H](O)[C@H](O)C2)c2nnn(Cc3ccccc3Cl)c2n1 (relative stereo) [Example 55, 1-[5-tert-Butyl-3-(2-chloro-benzyl)-3H-[1,2,3]triazolo[4,5-c]pyrimidin-7-yl]-pyrrolidine-3,4-trans-diol]	> 10000	10.4	
CC(C)(C)c1nc(N2CCOCC2)c2nnn(Cc3ccccc3Cl)c2n1 [Example 1, 5-tert-butyl-3-(2-chlorobenzyl)-7-morpholin-4-yl-3H-[1,2,3]triazolo[4,5-d]pyrimidine]	1060	0.6	
CC(C)(C)c1nc(N2CCCCC2)c2nnn(Cc3ccccc3Cl)c2n1 [Example 2, 5-tert-Butyl-3-(2-chloro-benzyl)-7-piperidin-1-yl-3H-[1,2,3]triazolo[4,5-d]pyrimidine]	555	1.6	
CC(C)(C)c1nc(N2CCC(F)(F)CC2)c2nnn(Cc3ccccc3Cl)c2n1 [Example 3, 5-tert-Butyl-3-(2-chloro-benzyl)-7-(4,4-difluoro-piperidin-1-yl)-3H-[1,2,3]triazolo[4,5-d]pyrimidine]	160	1.3	
CN1CCN(c2nc(C(C)(C)C)nc3c2nnn3Cc2ccccc2Cl)CC1 [Example 4, 5-tert-Butyl-3-(2-chloro-benzyl)-7-(4-methyl-piperazin-1-yl)-3H-[1,2,3]triazolo[4,5-d]pyrimidine]	190	1.4	
CC(C)(C)c1nc(N2CCCC2)c2nnn(Cc3ccccc3Cl)c2n1 [Example 5, 5-tert-Butyl-3-(2-chloro-benzyl)-7-pyrrolidin-1-yl-3H-[1,2,3]triazolo[4,5-d]pyrimidine]	632	0.3	
CC(C)(C)c1nc(N2CCC(F)(F)C2)c2nnn(Cc3ccccc3Cl)c2n1 [Example 6, 5-tert-Butyl-3-(2-chloro-benzyl)-7-(3,3-difluoro-pyrrolidin-1-yl)-3H-[1,2,3]triazolo[4,5-d]pyrimidine]	165	0.2	
CCNc1nc(C(C)(C)C)nc2c1nnn2Cc1ccccc1Cl [Example 7, [5-tert-Butyl-3-(2-chloro-benzyl)-3H-[1,2,3]triazolo[4,5-d]pyrimidin-7-yl]-ethyl-amine]	> 10000	11.2	
CC(C)(C)c1nc(NC2CCCCC2)c2nnn(Cc3ccccc3Cl)c2n1 [Example 8, [5-tert-Butyl-3-(2-chloro-benzyl)-3H-[1,2,3]triazolo[4,5-d]pyrimidin-7-yl]-cyclohexyl-amine]		647	> 10000
CCN(CC)c1nc(C(C)(C)C)nc2c1nnn2Cc1ccccc1Cl [Example 9, [5-tert-Butyl-3-(2-chloro-benzyl)-3H-[1,2,3]triazolo[4,5-d]pyrimidin-7-yl]-diethyl-amine]	> 10000	17.6	
CC(C)(C)c1nc(N2CC3(COC3)C2)c2nnn(Cc3ccccc3Cl)c2n1 [Example 10, 5-tert-Butyl-3-(2-chloro-benzyl)-7-(2-oxa-6-aza-spiro[3.3]hept-6-yl)-3H-[1,2,3]triazolo[4,5-d]pyrimidine]	404	2.4	
CC(C)(C)c1nc(N2CCC2)c2nnn(Cc3ccccc3Cl)c2n1 [Example 11, 7-Azetidin-1-yl-5-tert-butyl-3-(2-chloro-benzyl)-3H-[1,2,3]triazolo[4,5-d]pyrimidine]	1090	3.2	
CC(C)(C)c1nc(N2CC(F)(F)C2)c2nnn(Cc3ccccc3Cl)c2n1 [Example 12, 5-tert-Butyl-3-(2-chloro-benzyl)-7-(3,3-difluoro-azetidin-1-yl)-3H-[1,2,3]triazolo[4,5-d]pyrimidine]	1110	1.6	
CC(C)(C)c1nc(N2CC(O)C2)c2nnn(Cc3ccccc3Cl)c2n1 [Example 13]	> 10000	12.3	
CC1(O)CN(c2nc(C(C)(C)C)nc3c2nnn3Cc2ccccc2Cl)C1 [Example 14, 1-[5-tert-Butyl-3-(2-chloro-benzyl)-3H-[1,2,3]triazolo[4,5-d]pyrimidin-7-yl]-3-methyl-azetidin-3-ol]	1230	2.1	
COC1CN(c2nc(C(C)(C)C)nc3c2nnn3Cc2ccccc2Cl)C1 [Example 15, 5-tert-Butyl-3-(2-chloro-benzyl)-7-(3-methoxy-azetidin-1-yl)-3H-[1,2,3]triazolo[4,5-d]pyrimidine]	970	3.2	
C[C@@H]1CN(c2nc(C(C)(C)C)nc3c2nnn3Cc2ccccc2Cl)C[C@H](C)O1 [Example 16, 5-tert-Butyl-3-(2-chloro-benzyl)-7-((2R,6S)-2,6-dimethyl-morpholin-4-yl)-3H-[1,2,3]triazolo[4,5-d]pyrimidine]		286	> 10000
CC1COCCN1c1nc(C(C)(C)C)nc2c1nnn2Cc1ccccc1Cl (stereo not drawn) [Example 17, 5-tert-Butyl-3-(2-chloro-benzyl)-7-(3-methyl-morpholin-4-yl)-3H-[1,2,3]triazolo[4,5-d]pyrimidine]	> 10000	8.7	
CC(C)(C)c1nc(N2CCOC(CO)C2)c2nnn(Cc3ccccc3Cl)c2n1 (stereo not drawn) [Example 18, {4-[5-tert-Butyl-3-(2-chloro-benzyl)-3H-[1,2,3]triazolo[4,5-d]pyrimidin-7-yl]-morpholin-2-yl}-methanol]	> 10000	46.6	
CC(C)(C)c1nc(N2CCSC2)c2nnn(Cc3ccccc3Cl)c2n1 [Example 19, 5-tert-Butyl-3-(2-chloro-benzyl)-7-thiazolidin-3-yl-3H-[1,2,3]triazolo[4,5-d]pyrimidine]	131	1.7	
CC(C)(C)c1nc(N2CCSCC2)c2nnn(Cc3ccccc3Cl)c2n1 [Example 20, 5-tert-Butyl-3-(2-chloro-benzyl)-7-thiomorpholin-4-yl-3H-[1,2,3]triazolo[4,5-d]pyrimidine]	346	1.7	
CC(C)(C)c1nc(N2CCS(=O)(=O)CC2)c2nnn(Cc3ccccc3Cl)c2n1 [Example 21, 5-tert-Butyl-3-(2-chloro-benzyl)-7-(1,1-dioxo-1λ6-thiomorpholin-4-yl)-3H-[1,2,3]triazolo[4,5-d]pyrimidine]	601	2.7	
CC(C)(C)c1nc(N2CCC(F)(F)C2)c2nnn(C3COC3)c2n1 [Example 91, 5-tert-Butyl-7-(3,3-difluoro-pyrrolidin-1-yl)-3-oxetan-3-yl-3H-[1,2,3]triazolo[4,5-d]pyrimidine]		0.3	
CC(C)(C)c1nc(N2CCC(F)(F)C2)c2nnn(C(=O)c3ccccc3Cl)c2n1 [Example 92, [5-tert-Butyl-7-(3,3-difluoro-pyrrolidin-1-yl)-[1,2,3]triazolo[4,5-d]pyrimidin-3-yl]-(2-chloro-phenyl)-methanone]		350	
CC(C)(C)c1nc(N2C[C@@H](O)C(F)(F)C2)c2nnn(Cc3ccccc3Cl)c2n1 [Example 95, (R)-1-[5-tert-Butyl-3-(2-chloro-benzyl)-3H-[1,2,3]triazolo[4,5-d]pyrimidin-7-yl]-4,4-difluoro-pyrrolidin-3-ol]		1.5	
CC(C)(C)c1nc(N2CCC(F)(F)C2)c2nnn(S(=O)(=O)c3ccccc3Cl)c2n1 [Example 107, 5-tert-Butyl-3-(2-chloro-benzenesulfonyl)-7-(3,3-difluoro-pyrrolidin-1-yl)-3H-[1,2,3]triazolo[4,5-d]pyrimidine]		284	
